Source: ChEMBL document CHEMBL4680147, “Discovery of 6'-chloro-N-methyl-5'-(phenylsulfonamido)-[3,3'-bipyridine]-5-carboxamide (CHMFL-PI4K-127) as a novel Plasmodium falciparum PI(4)K inhibitor with potent antimalarial activity against both blood and liver stages of Plasmodium” (Eur J Med Chem, 2020)
Activity calls are given as the source filed them. The rule behind the calls is not given here.

Assays:
Plasmodium yoelii [1] = test: Antimalarial activity against blood stage Plasmodium yoelii infected in BALB/c mouse assessed as suppression of parasitemia administered once daily via oral gavage for 7 consecutive days starting from 1 day post-infection and observed for 20 days by Giemsa-staining based microscopic analysis; format: functional, organism-based; settings: dose 60-80 mg/kg/day, time 20.0 day
Plasmodium falciparum [2] = test: Antimalarial activity against chloroquine resistant Plasmodium falciparum D10 infected in human O+ erythrocytes incubated for 72 hrs by SYBR Green 1 dye based fluorescence assay; format: functional, organism-based; settings: D10, Erythrocyte
Plasmodium falciparum [3] = test: Antimalarial activity against Plasmodium falciparum GB4 infected in human O+ erythrocytes incubated for 72 hrs by SYBR Green 1 dye based fluorescence assay; format: functional, organism-based; settings: GB4, Erythrocyte
[4] = AUC(0 to t) in mouse at 10 mg/kg, po; format: ADME, organism-based; design: dose 10 mg/kg; settings: in vivo
Plasmodium falciparum [5] = test: Antimalarial activity against artemisinin and piperaquine-phosphate resistant Plasmodium falciparum 6320 infected in human O+ erythrocytes incubated for 72 hrs by SYBR Green 1 dye based fluorescence assay; format: functional, organism-based; settings: Plasmodium falciparum, 6320, Erythrocyte
Plasmodium yoelii [6] = test: (§1) Antimalarial activity against blood stage Plasmodium yoelii infected in BALB/c mouse assessed as suppression of parasitemia at 80 mg/kg/day, po administered for 7 consecutive days starting from 1 day post-infection and observed for 20 days by Giemsa-staining based microscopic analysis; format: functional; settings: time 20 day
[7] = Mean residence time (0 to t) in Sprague-Dawley rat at 1 mg/kg, iv; format: ADME, organism-based; settings: in vivo
[8] = Apparent clearance in Sprague-Dawley rat at 10 mg/kg, po; format: ADME, organism-based; settings: in vivo, read-out: CL(app) (converted)
[9] = AUC(0 to infinity) in Sprague-Dawley rat at 10 mg/kg, po; format: ADME, organism-based; design: time infinity, route oral, dose 10 mg/kg; settings: in vivo
[10] = Mean residence time (0 to t) in Sprague-Dawley rat at 10 mg/kg, po; format: ADME, organism-based; settings: in vivo
Plasmodium falciparum [11] = test: Antimalarial activity against pyrimethamine/chloroquine resistant Plasmodium falciparum C2A infected in human O+ erythrocytes incubated for 72 hrs by SYBR Green 1 dye based fluorescence assay; format: functional, organism-based; settings: Erythrocyte
Plasmodium falciparum [12] = test: Antimalarial activity against chloroquine resistant Plasmodium falciparum FAB9 infected in human O+ erythrocytes incubated for 72 hrs by SYBR Green 1 dye based fluorescence assay; format: functional, organism-based; settings: FAB9, Erythrocyte
Plasmodium yoelii [13] = test: as §1, with “60” for “80”, “measured after cessation of drug treatment” for “observed for 20 days”; format: functional, organism-based; settings: time 7.0 day
Plasmodium berghei [14] = test: (§2) Antimalarial activity against blood stage luciferase-expressing Plasmodium berghei sporozoites infected in BALB/c mouse assessed as suppression of parasitemia at 1 to 15 mg/kg, po treated for 2 hrs followed by parasite infection and measured upto 8 days post-infection by luciferase based real-time imaging analysis; format: functional, organism-based; settings: dose 1-15 mg/kg, time 194.0 hrs
[15] = Tmax in mouse at 1 mg/kg, iv; format: ADME, organism-based; settings: in vivo
[16] = Apparent clearance in Sprague-Dawley rat at 1 mg/kg, iv; format: ADME, organism-based; settings: in vivo, read-out: CL(app) (converted)
[17] = Tmax in Sprague-Dawley rat at 10 mg/kg, po; format: ADME, organism-based; settings: in vivo
[18] = AUC(0 to t) in mouse at 1 mg/kg, iv; format: ADME, organism-based; design: dose 1 mg/kg; settings: in vivo
[19] = AUC(0 to infinity) in mouse at 10 mg/kg, po; format: ADME, organism-based; design: route oral, time infinity, dose 10 mg/kg; settings: in vivo
[20] = AUC(0 to infinity) in mouse at 1 mg/kg, iv; format: ADME, organism-based; design: time infinity, route intravenous, dose 1 mg/kg; settings: in vivo
[21] = Selectivity index, ratio of IC50 for human PI3Kalpha to IC50 for recombinant His-tagged Plasmodium falciparum 3D7 PI4K expressed in baculovirus infected Sf9 cells
[22] = Tmax in mouse at 10 mg/kg, po; format: ADME, organism-based; settings: in vivo
[23] = Half life in Sprague-Dawley rat at 1 mg/kg, iv; format: ADME, organism-based; settings: in vivo
[24] = Cmax in mouse at 1 mg/kg, iv; format: ADME, organism-based; design: route intravenous, dose 1 mg/kg; settings: in vivo
[25] = Selectivity index, ratio of IC50 for human PI4K3beta to IC50 for recombinant His-tagged Plasmodium falciparum 3D7 PI4K expressed in baculovirus infected Sf9 cells
Plasmodium falciparum [26] = test: Antimalarial activity against pyrimethamine/chloroquine resistant Plasmodium falciparum CP286 infected in human O+ erythrocytes incubated for 72 hrs by SYBR Green 1 dye based fluorescence assay; format: functional, organism-based; settings: CP286, Erythrocyte
[27] = Apparent clearance in mouse at 10 mg/kg, po; format: ADME, organism-based; settings: in vivo, read-out: CL(app) (converted)
[28] = Apparent volume of distribution in mouse at 10 mg/kg, po; format: ADME, organism-based; settings: in vivo
[29] = Half life in mouse at 10 mg/kg, po; format: ADME, organism-based; settings: in vivo
[30] = Selectivity index, ratio of EC50 for antimalarial activity against wild type Plasmodium falciparum infected in human O+ erythrocytes to EC50 for antimalarial activity against Plasmodium falciparum harboring PI4K Y1342I mutant infected in human O+ erythrocytes; format: functional, Erythrocyte
[31] = target: Phosphatidylinositol 4,5-bisphosphate 3-kinase catalytic subunit beta isoform (Homo sapiens, UniProt P42338); test: Inhibition of human PI3Kbeta by ADP-Glo kinase assay
[32] = Apparent volume of distribution in Sprague-Dawley rat at 1 mg/kg, iv; format: ADME, organism-based; settings: in vivo, read-out: Vz
[33] = Selectivity index, ratio of EC50 for antimalarial activity against Plasmodium falciparum harboring PI4K Y1342I/T1360A mutant infected in human O+ erythrocytes to EC50 for antimalarial activity against Plasmodium falciparum harboring PI4K Y1342I mutant infected in human O+ erythrocytes; format: functional
[34] = Mean residence time (0 to t) in mouse at 1 mg/kg, iv; format: ADME, organism-based; settings: in vivo
[35] = Inhibition of human PIK3C2alpha by ADP-Glo kinase assay
Plasmodium berghei [36] = test: as §2, with “liver” for “blood”, “1” for “1 to 15”, “196 hrs” for “8 days”, “based in vivo” for “based”; format: functional; settings: time 198 hrs
[37] = Mean residence time (0 to t) in mouse at 10 mg/kg, po; format: ADME, organism-based; settings: in vivo
[38] = Selectivity index, ratio of IC50 for human PI4K3alpha to IC50 for recombinant His-tagged Plasmodium falciparum 3D7 PI4K expressed in baculovirus infected Sf9 cells
[39] = Cmax in Sprague-Dawley rat at 10 mg/kg, po; format: ADME, organism-based; design: route oral, dose 10 mg/kg; settings: in vivo
Plasmodium falciparum [40] = test: Antimalarial activity against sulphadoxine-resistant blood stage Plasmodium falciparum 3D7 infected in human O+ erythrocytes incubated for 72 hrs by SYBR Green 1 dye based fluorescence assay; format: functional, organism-based; settings: 3D7, Erythrocyte
[41] = Half life in mouse at 1 mg/kg, iv; format: ADME, organism-based; settings: in vivo

Phosphatidylinositol 4,5-bisphosphate 3-kinase catalytic subunit beta isoform, sequence (P42338 whole entry, canonical isoform): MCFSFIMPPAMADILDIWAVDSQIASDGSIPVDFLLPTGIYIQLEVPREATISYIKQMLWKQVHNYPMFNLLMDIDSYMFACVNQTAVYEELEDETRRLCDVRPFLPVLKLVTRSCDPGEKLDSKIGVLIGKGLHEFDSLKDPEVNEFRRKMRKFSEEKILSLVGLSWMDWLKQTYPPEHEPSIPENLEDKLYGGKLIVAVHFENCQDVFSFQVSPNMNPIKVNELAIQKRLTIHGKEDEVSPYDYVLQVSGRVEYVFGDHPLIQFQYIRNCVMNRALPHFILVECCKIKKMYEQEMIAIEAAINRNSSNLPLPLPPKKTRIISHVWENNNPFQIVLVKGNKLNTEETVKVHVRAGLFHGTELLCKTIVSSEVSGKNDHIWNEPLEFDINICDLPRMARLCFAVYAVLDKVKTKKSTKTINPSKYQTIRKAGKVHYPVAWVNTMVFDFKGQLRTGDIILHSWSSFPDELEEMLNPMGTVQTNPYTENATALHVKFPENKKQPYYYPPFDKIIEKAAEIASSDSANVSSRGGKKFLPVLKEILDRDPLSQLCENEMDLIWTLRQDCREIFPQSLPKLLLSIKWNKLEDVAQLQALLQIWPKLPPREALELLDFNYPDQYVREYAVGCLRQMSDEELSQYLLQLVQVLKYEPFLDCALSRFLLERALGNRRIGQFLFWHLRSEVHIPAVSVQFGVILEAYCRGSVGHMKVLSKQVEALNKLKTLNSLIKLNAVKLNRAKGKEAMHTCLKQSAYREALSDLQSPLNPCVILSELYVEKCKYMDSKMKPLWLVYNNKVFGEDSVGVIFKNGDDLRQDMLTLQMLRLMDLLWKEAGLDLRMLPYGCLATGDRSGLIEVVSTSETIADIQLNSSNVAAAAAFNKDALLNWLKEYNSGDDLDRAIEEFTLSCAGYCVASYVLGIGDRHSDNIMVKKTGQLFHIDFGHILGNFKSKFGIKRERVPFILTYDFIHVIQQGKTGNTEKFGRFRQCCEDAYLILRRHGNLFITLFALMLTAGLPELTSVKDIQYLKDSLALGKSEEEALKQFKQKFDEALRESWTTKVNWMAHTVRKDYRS

In the case of `CNC(=O)c1cncc(-c2cnc(Cl)c(NS(=O)(=O)c3ccccc3)c2)c1`, the Activity (Plasmodium yoelii [1]) is reported as “Dose dependent effect”, the EC50 (Plasmodium falciparum [2]) is reported as 28 nM and the EC50 (Plasmodium falciparum [3]) is reported as 47.8 nM. It also gave an AUC(0-t) [4] of 2630 ng·h/mL, an EC50 (Plasmodium falciparum [5]) of 24.7 nM and an Activity (Plasmodium yoelii [6]) of 100%. For the same molecule, the MRT last [7] was 1 h, the CL/F [8] was 8.33 mL/min/kg and the AUC(0-inf) [9] was 19300 ng·h/mL. The MRT last [10] was 4.3 h, the EC50 (Plasmodium falciparum [11]) was 28 nM and the EC50 (Plasmodium falciparum [12]) was 23.6 nM. For the same molecule, the Activity (Plasmodium yoelii [13]) was “inactive”, the Activity (Plasmodium berghei [14]) was “Active” and the Tmax [15] was 1.8 min. The clearance [16] was 8.33 mL/min/kg, the Tmax [17] was 0.83 h and the AUC(0-t) [18] was 327 ng·h/mL. It also gave an AUC(0-inf) [19] of 2380 ng·h/mL, an AUC(0-inf) [20] of 292 ng·h/mL and a Ratio IC50 [21] of 100. The Tmax [22] was 0.19 h, the half-life [23] was 3.5 h and the Cmax [24] was 718 ng/mL. The Ratio IC50 [25] was 400, the EC50 (Plasmodium falciparum [26]) was 24.1 nM and the CL/F [27] was 65 mL/min/kg. For the same molecule, the Vz [28] was 20.2 L/kg, the half-life [29] was 3.6 h and the “Ratio EC50” value [30] was 2. For the same molecule, the IC50 [31] was 392 nM, the Vd [32] was 2.6 L/kg and the “Ratio EC50” value [33] was 24. For the same molecule, the MRT last [34] was 3.1 h, the IC50 [35] was > 10000 nM and the Activity (Plasmodium berghei [36]) was 100%. For the same molecule, the MRT last [37] was 4.4 h, the Ratio IC50 [38] was 100 and the Cmax [39] was 4340 ng/mL. For the same molecule, the EC50 (Plasmodium falciparum [40]) was 25.1 nM and the half-life [41] was 2.7 h.
